Measurements published in PubChem BioAssay (NCI).
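Cells were grown in 96-well plates and exposed to each compound for 48 hours at five concentrations; endpoints were interpolated linearly between bracketing concentrations, or set to the highest concentration if not reached. Here, GI50 denotes the concentration required for 50% inhibition of growth. At the TGI there is no net growth.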

Columns and labels:
Assay in all cases: NCI anticancer screen, dose series, 48 h
A549 NSCLC = tested on: A549 NSCLC
BT-549 breast = tested on: BT-549 breast
HT29 colon = tested on: HT29 colon
M14 melanoma = tested on: M14 melanoma
MOLT-4 leukemia = tested on: MOLT-4 leukemia
NCI-H23 lung = tested on: NCI-H23 lung
NCI-H522 lung = tested on: NCI-H522 lung
OVCAR-3 ovarian = tested on: OVCAR-3 ovarian
UACC-257 melanoma = tested on: UACC-257 melanoma
UACC-62 melanoma = tested on: UACC-62 melanoma

Structure (SMILES) | GI50 (A549 NSCLC) | TGI (A549 NSCLC) | GI50 (BT-549 breast) | TGI (BT-549 breast) | GI50 (HT29 colon) | TGI (HT29 colon) | GI50 (M14 melanoma) | TGI (M14 melanoma) | GI50 (MOLT-4 leukemia) | TGI (MOLT-4 leukemia) | GI50 (NCI-H23 lung) | TGI (NCI-H23 lung) | GI50 (NCI-H522 lung) | TGI (NCI-H522 lung) | GI50 (OVCAR-3 ovarian) | TGI (OVCAR-3 ovarian) | GI50 (UACC-257 melanoma) | TGI (UACC-257 melanoma) | GI50 (UACC-62 melanoma) | TGI (UACC-62 melanoma)
CN1CCN(CC(=O)N2c3cccc4cccc(c34)N(C(=O)CN3CCN(C)CC3)C2c2cn(-c3ccccc3)nc2-c2cccc([N+](=O)[O-])c2)CC1 | 3.21 µM | 13.2 µM | 1.67 µM | 3.26 µM | 2.19 µM | 5.59 µM | 1.75 µM | 3.34 µM | 2.21 µM | 5.94 µM | 2.13 µM | 5.45 µM | 1.92 µM | 4.13 µM | 1.76 µM | 3.4 µM | 1.86 µM | 3.69 µM | 1.77 µM | 3.38 µM
Cc1cc(N(CCOS(C)(=O)=O)CCOS(C)(=O)=O)ccc1C=Nc1ccc(-c2csc(-c3ccc(Br)cc3)n2)cc1 |  | 53.1 µM |  | > 76.4 µM |  | 44.6 µM |  | 50.1 µM |  | > 69.5 µM |  | 41.7 µM |  | 1.68 µM |  | 44.3 µM |  | 56.8 µM |  | 22.3 µM
COc1cnc2c(c1)C(=O)c1c-2n(CCCNC(C)C)c(=O)c2cc([N+](=O)[O-])ccc12 |  |  | 0.107 µM | 0.314 µM | 0.0364 µM | 1.01 µM | 0.0347 µM | 0.135 µM | 0.0223 µM | 0.0941 µM | 0.0401 µM | 0.285 µM | 0.0233 µM | 0.158 µM | 0.0824 µM | 0.247 µM | 0.195 µM | 1.44 µM | 0.0191 µM | 0.123 µM
Oc1c(I)cc(I)cc1CN(Cc1ccccn1)Cc1ccccn1 | 0.906 µM | 13.4 µM | 1.12 µM | 13.8 µM | 3.93 µM | 18 µM | 0.766 µM | 9.86 µM | 0.89 µM | 10.7 µM | 2.48 µM | 40.6 µM | 2.04 µM | 28 µM | 1.83 µM | 15.1 µM | 2.8 µM | 14.5 µM | 0.499 µM | 5.73 µM
CCN1CCN(c2ccc(Nc3ncc4ccc5ncn(C(C)C)c5c4n3)nc2)CC1 | 0.0838 µM | 10.4 µM | 0.218 µM | 0.687 µM | 0.0489 µM | 15.5 µM | 0.124 µM | 1.34 µM | 0.0416 µM | 1.91 µM | 0.211 µM | 0.85 µM | 0.208 µM | 0.809 µM | 0.192 µM | 0.523 µM | 0.283 µM | 27.1 µM | 0.199 µM | 0.723 µM
Cc1nc2sc(C(=O)Nc3cccc(Br)c3)c(N)c2cc1C(O)c1ccccc1 (configuration not stated) | 0.9 µM | > 71.3 µM | 1.75 µM | 19.9 µM | 0.393 µM | > 82.5 µM | 0.466 µM | 29.7 µM | 0.58 µM | > 100 µM | 1.13 µM | 17.9 µM | 0.726 µM | > 28.4 µM | 0.392 µM | 6.23 µM | 0.847 µM | 25.2 µM | 0.622 µM | 16.4 µM
Nc1nc(-c2ccc(Cl)cc2)cc(-c2ccccc2)c1-c1nc2ccccc2o1 | 5.9 µM | > 100 µM | 13.5 µM | 28.3 µM | 5.99 µM | 39.1 µM | 10.4 µM | 26.2 µM | 3.3 µM | 11.4 µM | 6.24 µM | 34.6 µM | 9.5 µM | 33.9 µM | 7.29 µM | 27.3 µM | 15.3 µM | 35.3 µM | 15.8 µM | 30.7 µM
COc1ccc2nc(-c3cc4c([nH]c5ccccc54)c(-c4ccc(F)c(F)c4)n3)[nH]c2c1 | 4.05 µM | 17.6 µM | 6.3 µM | 22.5 µM | 3.74 µM | 13 µM | 4.02 µM | 16.9 µM | 2.03 µM | 7.39 µM | 6.56 µM | 27.5 µM | 10 µM | 33.8 µM | 1.94 µM | 4.12 µM | 5.68 µM | 22 µM | 2.76 µM | 10.2 µM
COc1cc(C)c(NC(=O)CN(C)C)cc1Nc1nc(Nc2cccc(F)c2C(N)=O)c2cc[nH]c2n1 | 0.945 µM | 4.82 µM | 4.35 µM | 18.9 µM | 0.00981 µM | 0.725 µM | 1.1 µM | 5.98 µM | 1.09 µM | 25 µM | 0.586 µM | 6.02 µM | 0.623 µM | 3.69 µM | 0.682 µM | 1.86 µM | 0.0555 µM | 4.05 µM | 1.16 µM | 7.89 µM
Nc1nc(-c2ccccc2)cc(-c2ccc(Cl)cc2)c1-c1nc2ccccc2o1 | 14.9 µM | 31.4 µM | 15.5 µM | 29.7 µM | 12 µM | 31.7 µM | 14.5 µM | 35.4 µM | 5 µM | 20.3 µM | 23.5 µM | > 100 µM | 13.5 µM | 30.6 µM | 15.7 µM | 30.8 µM | 19.5 µM | 35.1 µM | 16.6 µM | 30.6 µM
Nc1ccc(-c2ccc(-c3nc4cc(Cl)c(Cl)cc4[nH]3)cc2)cc1 | 1.46 µM | > 100 µM | 27.4 µM | > 100 µM | 1.42 µM | > 100 µM | 0.0456 µM | > 37.1 µM | 1.66 µM | > 85 µM | 20.1 µM | > 100 µM | 1.03 µM | > 80.9 µM | 0.944 µM |  | 1.38 µM | > 60.7 µM | < 0.0215 µM | > 45 µM
C=C1C(=O)O[C@H]2[C@H]1CC/C(COC(=O)NCc1cc(OC)cc(OC)c1)=C\CC[C@@]1(C)O[C@@H]21 | 2.58 µM | 7.47 µM | 1.57 µM | 3.07 µM | 1.2 µM | 2.96 µM | 1.64 µM | 3.87 µM | 2 µM | 5.55 µM | 1.84 µM | 4.32 µM | 0.349 µM | 1.49 µM | 1.01 µM | 2.31 µM | 1.54 µM | 3.7 µM | 0.663 µM | 2.56 µM
